Results published in BindingDB's records for doi:10.1016/s0960-894x(00)00136-0 (Iowa State University, 2000).

Experiments:
[1] = target: Endothelin receptor type B (rabbit); experiment: Tested for binding affinity towards rabbit Endothelin B receptor
[2] = target: Endothelin-1 receptor (rabbit); experiment: Tested for binding affinity towards rabbit Endothelin A receptor

C/C=C/C=C/C(=O)O[C@@H]1C=C2COC(O)[C@]2(O)[C@@]2(C)CCCC(C)(C)C12 (stereo partly drawn) [(2E,4E)-Hexa-2,4-dienoic acid (5R,9aS,9bS)-1,9b-dihydroxy-6,6,9a-trimethyl-1,3,5,5a,6,7,8,9,9a,9b-decahydro-naphtho[1,2-c]furan-5-yl ester]
IC50 [1]: 70 µM
IC50 [2]: 50 µM
